Results on two molecules are retold here after PMC6201195, “The Xylulose 5-Phosphate/Phosphate Translocator Supports Triose Phosphate, but Not Phosphoenolpyruvate Transport Across the Inner Envelope Membrane of Plastids in Arabidopsis thaliana Mutant Plants” (Frontiers in Plant Science, 2018).

Data set [1] concerns the target T1, XPT (xylulose 5-phosphate/phosphate translocator) (Arabidopsis thaliana, UniProt Q9LF61).
T1 construct: full-length XPT cDNA, His-tag (pYES-DEST52), expressed in Saccharomyces cerevisiae InvSC; yeast membranes reconstituted into proteoliposomes, tag kept
T1 sequence (Q9LF61 1-417 limits assumed): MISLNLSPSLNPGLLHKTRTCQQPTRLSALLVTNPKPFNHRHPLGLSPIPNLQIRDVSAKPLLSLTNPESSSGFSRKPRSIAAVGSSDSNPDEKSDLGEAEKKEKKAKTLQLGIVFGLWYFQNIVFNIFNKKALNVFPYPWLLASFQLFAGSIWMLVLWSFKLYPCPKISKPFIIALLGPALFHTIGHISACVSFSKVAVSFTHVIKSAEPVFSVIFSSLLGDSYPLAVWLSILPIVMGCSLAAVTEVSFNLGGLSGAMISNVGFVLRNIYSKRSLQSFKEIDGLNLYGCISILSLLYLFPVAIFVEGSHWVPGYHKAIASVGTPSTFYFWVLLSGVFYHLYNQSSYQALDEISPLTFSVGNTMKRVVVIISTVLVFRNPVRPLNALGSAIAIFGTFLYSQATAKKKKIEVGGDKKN
Nature of the data set: inhibition of homologous […]/[…] exchange in proteoliposomes with reconstituted yeast membranes. The following applies: external pH 7.0; 0.14 mM 32Pi; hyperbolic fit; alternative transport substrate. The format is biochemical.

Substrate in data set [2]: O=P(O)(O)O
The data set can be described thus: cells, lysate or membranes. The following applies: external pH 7.0, internal pH 7.8; counter-exchange; labelled compound.

For `C=C(OP(=O)(O)O)C(=O)O` [PEP], the “Ki(app)” value in data set [1] is recorded as 3.76 ± 0.39 mM.

B1: XPT (xylulose 5-phosphate/phosphate translocator) (Arabidopsis thaliana) (protein)
chain: T1 sequence (Q9LF61 1-417 limits assumed)
For B1, the Km in data set [2] was 400 ± 70 µM.

One may read the Km as the substrate concentration at which the rate is half of its maximum.
